Measurements taken from the supplement of paper PMC10307832.

Assays:
Experiment in all cases: relative viability (nuclei count vs DMSO), 5 days (fraction); higher = more cells survive
[1] = compound: C#Cc1cccc(Nc2ncnc3cc(OC)c(OCCCCCCC(=O)NO)cc23)c1 [CUDC-101] + Cc1nc(NC(=O)N2CCC[C@H]2C(N)=O)sc1-c1ccnc(C(C)(C)C(F)(F)F)c1 [Alpelisib] (partner 2 µM)
How it was run: (§1)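 Nuclei were stained with Hoechst during a one-step fixation (final 0.05% Triton X-100, 1% formaldehyde, 1 ug/ml Hoechst) carried out 5 days after dosing, then counted on 4× images. The cells, lung cancer lines in 1536-well plates, had been dosed by pin tool the day after seeding with one drug alone or a fixed anchor-drug dose plus five library-drug doses (not always all listed) in √10 steps. Relative viability is the nuclei count in treated wells divided by that in vehicle wells, and each value is the median of duplicate plates.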

[2] = compound: C1=CC=C2C(=C1)N=C(S2)C(C#N)C3=NC(=NC=C3)NCCC4=CN=CC=C4 + COc1cc2c(Oc3ccc(NC(=O)C4(C(=O)Nc5ccc(F)cc5)CC4)cc3F)ccnc2cc1OCCCN1CCOCC1 [Foretinib] (partner 0.25 µM)
How it was run: as §1

[3] = compound: C1=CC=C2C(=C1)N=C(S2)C(C#N)C3=NC(=NC=C3)NCCC4=CN=CC=C4 + C[C@@H](Oc1cc(-c2cnn(C3CCNCC3)c2)cnc1N)c1c(Cl)ccc(F)c1Cl [Crizotinib] (partner 1 µM)
How it was run: as §1

[4] = compound: COc1cc(N2CCC(N3CCN(C)CC3)CC2)ccc1Nc1ncc(Cl)c(Nc2ccccc2S(=O)(=O)C(C)C)n1 [NVP-TAE684] + COc1cccc2cc(-c3nc([C@H]4CC[C@H](C(=O)O)CC4)n4ncnc(N)c34)[nH]c12 [OSI-027] (partner 0.5 µM)
How it was run: as §1

Row | Cell Line | relative viability ([1]; first compound 0.01 µM) | relative viability ([1]; first compound 0.03162 µM) | relative viability ([1]; first compound 0.1 µM) | relative viability ([1]; first compound 0.3162 µM) | relative viability ([1]; first compound 1 µM) | relative viability ([2]; first compound 0.005 µM) | relative viability ([2]; first compound 0.01581 µM) | relative viability ([2]; first compound 0.05 µM) | relative viability ([2]; first compound 0.1581 µM) | relative viability ([2]; first compound 0.5 µM) | relative viability ([3]; first compound 0.005 µM) | relative viability ([3]; first compound 0.01581 µM) | relative viability ([3]; first compound 0.05 µM) | relative viability ([3]; first compound 0.1581 µM) | relative viability ([3]; first compound 0.5 µM) | relative viability ([4]; first compound 0.2 µM) | relative viability ([4]; first compound 0.6325 µM) | relative viability ([4]; first compound 2 µM)
1 | ABC-1 | 1.15 | 1.07 | 0.819 | 0.609 | 0.572 | 1.2 | 1.01 | 0.935 | 1.12 | 1 | 1.05 | 1.1 | 0.941 | 1.21 | 0.925 | 0.393 | 0.419 | 0.179
2 | NCI-H1666 | 0.958 | 0.949 | 1.05 | 0.974 | 0.498 | 0.897 | 0.951 | 0.971 | 0.981 | 0.838 | 1.07 | 0.975 | 1.01 | 1 | 0.907 | 0.901 | 0.767 | 0.641
3 | COR-L23 | 0.968 | 0.753 | 0.661 | 0.617 | 0.349 | 0.861 | 1.03 | 0.961 | 1.29 | 0.798 | 0.6 | 0.596 | 0.728 | 0.653 | 0.568 | 0.818 | 0.804 | 0.316
4 | NCI-H460 | 0.478 | 0.42 | 0.589 | 0.443 | 0.465 | 0.969 | 1.15 | 1.06 | 1.08 | 1.08 |  | 0.908 | 0.71 | 0.873 | 0.902 | 0.811 | 0.607 | 0.162
